Assay results published in patent US9120789B2, “1-(5-tert-butyl-2-phenyl-2H-pyrazol-3-yl)-3-[2-fluoro-4-(1-methyl-2-oxo-2,3-dihydro-1H-imidazo[4,5-b]pyridin-7-yloxy)-phenyl]-urea and related compounds and their use in therapy” (CANCER RESEARCH TECHNOLOGY LIMITED, priority 2010, dated 2015).

Assays:
B-RAF = B-RAF (Homo sapiens, UniProt P15056); assay: Assay A - DELFIA kinase assay; type: biochemical; conditions: 100 μM ATP; mean of usually three assays; read-out: Assay A BRAF IC50
Method: Biological Methods—Assay A—DELFIA Kinase Assay
Compounds were assessed by a kinase assay performed according to the following protocol.
The following reagents were prepared:
DELFIA Kinase Buffer (DKB):
DKB1 (DKB with B-RAF and MEK Protein):
Combine 4950 μL of DKB and 50 μL of 2.5 mg/mL GST-MEK stock (to give 1 mg of MEK per 40 μL). Then add 22.5 μL of B-RAF to give ˜0.2 μL of B-RAF per 40 μL.
DKB2 (DKB with MEK Protein):
Combine 4950 μL of DKB and 50 μL of 2.5 mg/mL GST-MEK stock (to give […] of MEK per 40 μL). Use 500 μL of this for the blow out (BO) and the empty vector (EV) control.
100 mM stock, dilute to 500 μM to give 100 μM final concentration in assay.
Inhibitors (Test Compounds):
Phospho-MEK1/2 CST #9121S diluted 1:1000 in DELFIA assay buffer (AB). Pre-incubate antibody in the AB for 30 minutes at room temperature prior to use.
Anti-rabbit-Eur labelled secondary Perkin Elmer #AD0105 diluted 1:1000 in DELFIA assay buffer (AB). Pre-incubate antibody in the AB for 30 minutes at room temperature prior to use. (Primary and secondary antibodies were incubated together.)
DELFIA assay buffer Perkin Elmer #4002-0010.
DELFIA enhancement solution Perkin Elmer #4001-0010.
96 well glutathione-coated black plate Perbio #15340.
1. Preblock wells with 5% milk in TBS for 1 hour.
2. Wash wells 3× with 200 μL TBS.
3. Plate out 40 μL of DKB1 for all inhibitors (test compounds), DMSO control, and optionally other control compounds.
4. Plate out 40 μL of DKB2 for BO and EV wells.
5. Add inhibitors (test compounds) at 0.5 μL per well according to desired plate layout.
6. Add 0.5 μL DMSO to vehicle control wells.
7. Add 2 μL of B-RAF to BO and EV wells.
8. Pre-incubate with inhibitors (test compounds) for 10 minutes at room temperature with shaking.
9. Add 10 μL of 500 μM ATP stock, in DKB, to give 100 μM assay concentration.
10. Seal plates with TopSeal and incubate at room temperature with shaking for 45 minutes.
11. Wash plates 3× with 200 μL 0.1% Tween20/Water to terminate reaction.
12. Add 50 μL per well of antibody mix and incubate for 1 hour at room temperature with shaking.
13. Wash plates 3× with 200 μL 0.1% Tween20/Water.
14. Add 100 μL DELFIA enhancement solution per well, cover in foil, and incubate at room temperature for 30 minutes with shaking.
15. Read on Victor using Europium protocol.
(§1) Values for the blank (Empty Vector) are subtracted from all values. The DMSO controls are set as 100% activity and assay points (the response) are calculated as a percentage of the DMSO control. Data are plotted using Graphpad Prism software and a non-linear regression line is calculated using a variable slope sigmoidal dose-response equation: Y=Bottom+[Top−Bottom]/[1+10^((Log EC50−X)*HillSlope)] where X is the logarithm of concentration and Y is the response. The IC50 generated by this procedure is the concentration of the drug that produces a percentage control fluorescence value midway between the saturation, and zero-effect plateaus. Three independent assays are usually performed and the mean IC50 is reported. Biological Methods—Assay B—Cell Based Phosho-ERK Assay

[1] = test system: pERK in mutant BRAF WM266.4 cells; assay: Assay B - cell based phospho-ERK assay; conditions: Homo sapiens, WM 266-4, 6 hours incubation
Method: as §1
Compounds were assessed using a cell-based assay which was performed according to the following protocol.
Plate out 16,000 mutant BRAF WM266.4 cells/well in 99 μL medium in a 96-well plate.
1. Add 1 μL inhibitor (test compound) to the cells (total […]).
2. Incubate the cells with test compound for 6 hours at 37° C.
3. Aspirate off the solution from all of the wells.
4. Fixate the cells with 100 μL 4% formaldehyde/0.25% Triton X-100 PBS per well.
5. Incubate the plate for 1 hour at 4° C.
6. Aspirate off the fixing solution and add 300 μL TBS per well.
7. Leave the plate overnight at 4° C.
1. Wash the plate 2× with 200 μL PBS per well.
2. Block with 100 μL 5% dried milk in TBS.
3. Incubate the plate for 20 minutes at 37° C.
4. Wash the plate 2× with 0.1% tween/H2O.
5. Add 50 μL of 3 μg/mL primary antibody pERK (Sigma M8159), diluted in 5% milk powder/TBS, to each well.
6. Incubate the plate for 2 hours at 37° C.
7. Wash the plate 3× with 0.1% tween/H2O.
8. Add 50 μL of 0.45 μg/mL secondary Europium-labelled anti-mouse antibody (Perkin Elmer) to each well.
9. Incubate the plate for 1 hour at 37° C.
10. Wash the plate 3× with 0.1% tween/H2O.
11. Add 100 μL enhancement solution (Perkin Elmer) to each well.
12. Leave the plate for approximately 10 minutes at room temperature before gently shaking the plate.
13. Read Europium Time Resolved Fluorescence in Victor2.
14. Wash the plate 2× with 0.1% tween/H2O.
15. Measure the protein concentration with BCA (Sigma) by adding 200 μL of solution per well.
16. Incubate the plate for 30 minutes at 37° C.
17. Read absorbance levels at 570 nm in a plate reader.
Note that Europium counts are normalised for protein levels by dividing counts by absorbance.
as §1, with “blank (no cells)” for “blank (Empty Vector)”, “the response).” for “the response.”, “Methods—Assay C—SRB Cell Proliferation” for “Methods—Assay B—Cell Based Phosho-ERK”, “Assay (SRB GI50)” for “Assay”

[2] = test system: WM266.4 melanoma cell line (mutant BRAF); assay: Assay C - SRB cell proliferation assay, WM266.4; type: cell-based; conditions: Homo sapiens, WM 266-4, 120 h; WM266.4, 5 days growth
Method: as §1, with “blank (no cells)” for “blank (Empty Vector)”, “the response).” for “the response.”, “Methods—Assay C—SRB Cell Proliferation” for “Methods—Assay B—Cell Based Phosho-ERK”, “Assay (SRB GI50)” for “Assay”
Cell lines (e.g., WM266.4 and A375M melanoma cell lines; SW620 colorectal carcinoma cell line) are routinely cultured in DMEM or RPMI1640 supplemented with 10% foetal bovine serum, at 37° C., in 10% CO2 water saturated atmosphere. Cultures are maintained in exponential growth phase by sub-culturing before having become confluent (3-5 day intervals). Single cell suspensions are prepared by harvesting an 80 cm^2 tissue culture flask with 5 mL commercial trypsin EDTA. After 5 minutes, the detached cells are mixed with 5 mL fully complemented culture medium and centrifugally pelleted (1000 rpm for 7 minutes). After aspirating the supernatant, the cell pellet is re-suspended in 10 mL fresh medium and the cells fully disaggregated by drawing the whole volume up/down 5 times through a 19-gauge needle. The concentration of the cells is determined using a haemocytometer ( 1/10 dilution). A suitable volume to give at least a 2-fold excess for the number of tests being conducted, typically 100-200 mL, is prepared by diluting the cell suspension to 10,000-40,000/mL, and 100 μL/well dispensed into 96 well plates using a programmable 8-channel peristaltic pump, giving 1000-4000 cells/well, leaving column 12 blank. The plates are returned to the incubator for 24 hours to allow the cells to re-attach.
The compounds being tested are prepared at 10 mM in DMSO. Aliquots (24 μL) are diluted into 1.2 mL culture medium giving 200 μM, and 10 serial dilutions of 3× performed by transferring 80 μL to 160 μL. Aliquots (100 μL) of each dilution are added to the wells, using an 8-channel pipettor, thus performing a final further 2× dilution, and giving doses ranging from 100 μM to 0.005 μM. Column 11 receives plain culture medium only. Each compound is tested in quadruplicate, each replicate being the average of four wells.
After a further 5 days growth, the plates are emptied, and the cells are fixed in 10% trichloroacteic acid for 30 minutes at 4° C. After thorough rinsing in running tap water, the plates are dried, and stained by adding 50 μL of a solution of 0.1% sulphorhodamine-B in 1% acetic acid, for 10 minutes at room temperature. The stain is poured out and the plates thoroughly rinsed under a stream of 1% acetic acid, thus removing unbound stain, and dried. The bound stain is taken into solution by addition of 100 μL Tris buffer pH 8, followed by 10 minutes on a plate-shaker (approximately 500 rpm). The absorbance at 540 nm in each well (being proportional to the number of cells present) is determined using a plate reader.
After averaging the blank values in column 12 this was subtracted from all values, and results expressed as a percentage of the untreated value (column 11). […] The GI50 generated by this procedure is the concentration of the drug that produces a percentage control A540 midway between the saturation, and zero-effect plateaus.

B-RAF, sequence (P15056 whole entry): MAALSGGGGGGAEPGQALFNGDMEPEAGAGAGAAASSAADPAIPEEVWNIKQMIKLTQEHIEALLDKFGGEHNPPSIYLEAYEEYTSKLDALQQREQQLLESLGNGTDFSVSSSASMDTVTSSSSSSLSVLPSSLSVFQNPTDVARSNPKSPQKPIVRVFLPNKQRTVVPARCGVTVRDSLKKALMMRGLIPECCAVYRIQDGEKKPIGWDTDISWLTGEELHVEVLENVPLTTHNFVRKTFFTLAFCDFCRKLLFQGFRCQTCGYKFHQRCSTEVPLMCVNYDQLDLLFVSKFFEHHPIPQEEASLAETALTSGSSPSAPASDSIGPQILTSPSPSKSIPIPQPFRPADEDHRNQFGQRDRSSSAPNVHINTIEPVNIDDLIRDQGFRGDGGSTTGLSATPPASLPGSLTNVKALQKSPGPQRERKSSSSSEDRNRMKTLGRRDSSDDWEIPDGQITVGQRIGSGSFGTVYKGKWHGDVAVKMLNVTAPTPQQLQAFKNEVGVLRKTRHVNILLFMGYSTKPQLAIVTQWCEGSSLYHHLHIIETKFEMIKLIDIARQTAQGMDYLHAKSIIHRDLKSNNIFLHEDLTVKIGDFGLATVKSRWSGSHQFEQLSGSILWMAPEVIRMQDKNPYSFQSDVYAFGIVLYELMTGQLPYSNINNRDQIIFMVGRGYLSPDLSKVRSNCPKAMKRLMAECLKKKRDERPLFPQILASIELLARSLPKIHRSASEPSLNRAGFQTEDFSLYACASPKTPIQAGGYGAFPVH

| Structure (SMILES) | IC50 (B-RAF) [nM] | IC50 [1] [nM] | GI50 [2] [nM] |
| --- | --- | --- | --- |
| Cc1ccc(-n2nc(C(C)(C)C)cc2NC(=O)Nc2ccc(Oc3ccnc4[nH]c(=O)n(C)c34)cc2F)cc1 [AA-02, 1-(3-Tert-butyl-1-p-tolyl-1H-pyrazol-5-yl)-3-(2-fluoro-4-(1-N-methyl-2-oxo-2,3-dihydro-1H-imidazo[4,5-b]pyridin-7-yloxy)phenyl)urea] | 197 | 20 | 57 |
| Cn1c(=O)[nH]c2nccc(Oc3ccc(NC(=O)Nc4cc(C(C)(C)C)nn4-c4ccc(Cl)cc4)c(F)c3)c21 [AA-03, 1-(3-Tert-butyl-1-(4-chlorophenyl)-1H-pyrazol-5-yl)-3-(2-fluoro-4-(1-N-methyl-2-oxo-2,3-dihydro-1H-imidazo[4,5-b]pyridin-7-yloxy)phenyl)urea] | 302 | 60 | 121 |
